Measured values published in patent US6468983B2, “RNase L activators and antisense oligonucleotides effective to treat telomerase-expressing malignancies” (The Cleveland Clinic Foundation, priority 1997, dated 2002).

Tests used:
U373 cells = assay: Viable cell count (trypan blue), daily oligonucleotide plus lipofectamine; format: cell-based, human; conditions: U373, 0.5 micromolar daily plus lipofectamine; for cell viability / viable cell numbers reduced by: 7 days
Description: (§1) Cells (10,000/well) were seeded on 96 well tissue culture dishes, and treated every 24 hours. A 10× concentrated mixture of oligonucleotides plus lipofectamine in water was prepared containing 5 micromolar oligonucleotide and 80 microgram per ml lipofectamine™ (Gibco/BRL) and incubated for 10 min at room temperature. Media was removed from the cells, 10 microliters of the oligonucleotide/lipofectamine mixture was added directly to the cultured cells followed by 90 microliters of media plus serum. The media was changed with oligonucleotide/lipofectamine treatments every 24 h. Cells were passaged when the control cells reached confluency, and viable cells were counted after staining with Trypan Blue (GibcoBRL). The numbers of cells treated only with lipofectamine were used as the control to calculate percentages of cell survival or viability.

U373-MG cells = assay: Combination with cisplatin in vitro, MTT assay; format: cell-based, human
Description: (§2) FIG. 17. Effect of combining 2-5A-anti-hTR with cisplatin on malignant glioma U373-MG cells in vitro and in vivo. FIG. 17A Tumor cells were treated with 2-5A-anti-hTR (0.5 μM, every 24 hr) mixed with Lipofectamine (1.0 μl/25 μl DMEM) or cisplatin for three days, and their viability was determined by MTT assay. Values represent the means±S.D. FIG. 17B Tumors from U373-MG cells (1.0×10^6 cells in 0.05 ml serum free DMEM and 0.05 ml matrigel) were established subcutaneously in nude mice. After four or five weeks when the tumors were approximately 60-100 mm^3, spA4-anti-hTR (5 nmol/20 μl sterile distilled water) were administrated directly into the tumors daily for 7 days. Cisplatin (1.0 or 5.0 mg/kg/mice) was administered intraperitoneally on Days 1, 3 and 5. Five Mice were used in each treatment group. Tumor volume was then determined using calipers, and the mean sizes ±S.D. were calculated.
To determine if the anti-malignant glioma cell activity of chemotherapeutic agent, cisplatin, could be enhance with SpA4-anti-hTR, a combination therapy protocol was devised (FIG. 17). The point at which 50% cell death was achieved was using 1 microgram per ml of cisplatin plus 0.5 micromolar of SpA4-anti-hTR; whereas in the absence of SpA4-anti-hTR, >10 micrograms per ml of cisplatin were required to achieve 50% cell death (FIG. 17). […] Furthermore, we determined the effect of combining 2-5A-anti-hTR with cisplatin on U373-MG cells in vitro and in vivo. […] The IC50 of cisplatin was reduced from 10.0 to 1.0 μg/ml by combination of spA4-anti-hTR.

U373-MG tumors [1] = assay: Combination with cisplatin on subcutaneous tumors in nude mice; format: in vivo; conditions: cisplatin 1 or 5 mg/kg i.p. Days 1, 3, 5 combined with spA4-anti-hTR 5 nmol intratumoral daily 7 days, versus cisplatin alone
Description: as §2
To determine if the anti-malignant glioma cell activity of chemotherapeutic agent, cisplatin, could be enhance with SpA4-anti-hTR, a combination therapy protocol was devised (FIG. 17). […] Furthermore, we determined the effect of combining 2-5A-anti-hTR with cisplatin on U373-MG cells in vitro and in vivo. […]

telomerase RNA (hTR) = assay: RT-PCR for telomerase RNA in oligonucleotide-treated U251-MG cells; format: cell-based, human; conditions: oligonucleotide 5 μM, 5 hours treatment
Description: Chimeric oligonucleotides were synthesised on solid supports and purified as described previously (Torrence et al 1993; Lesiak et al 1993; Xiao et al 1994, 1996; Cirino et al 1997). Tumor cells were seeded at 3×10^5 cells/well (3 ml) in 6-well plates and incubated overnight at 37° C. Cells were then treated with oligonucleotides (5 μM). Five hours later total RNA was isolated by using Trizol solution (GIBCO BRL, Grand Island, N.Y.). Expression of telomerase RNA was determined with RT-PCR. The RNA was reverse transcribed into complementary DNA (cDNA) with random oligos used as a primer, and then the cDNA was diluted three times with buffer 10×PCR buffer (Perkin-Elmer, Norwalk, Conn.) at a final concentration of 1:4. The DNA at each dilution was amplified using primers to antisense and sense sequences on opposite sides of the human telomerase RNA sequence, 5′-[…]-3′ (SEQ ID NO:4) and 5′[…]-3′ […], respectively, or to the GAPDH coding sequence, 5′-[…]-3′ […] and 5′[…]-3′ (SEQ ID NO:7), respectively, producing DNA fragments of 400 bp for telomerase cDNA and 508 bp for the GAPDH cDNA, respectively. The PCR went for 30 cycles (94° C., 1 min; 55° C., 1 min; 72° C., 2 min) for telomerase and 30 cycles (94° C., 1 min; 60° C., 1 min; 74° C., 3 min) for GAPDH. The PCR products were analyzed by 1.2% agarose gel electrophoresis and ethidium bromide staining.
Aliquots of U251-MG cells were treated with the “active” oligonucleotide and the two controls for 5 hours. RNA was then prepared from these cells and subjected to RT-PCR to detect telomerase RNA. […] In contrast, telomerase RNA (hTR) was present in cells treated with the control oligonucleotides; spA2-anti-hTR and spA4-anti-(M6)hTR. Thus, hTR could be selectively destroyed in U251-MG cells. Since the RT-PCR assay is not quantitative, it was not possible to assess whether treatment with the spA2-anti-hTR , which has the fully complementary target sequence, had any antisense effect by itself (see below). […]

U251-MG cells = assay: Cell viability assay, trypan blue dye exclusion, oligonucleotide in water every 12 hr; format: cell-based, human; conditions: 5 micromolar every 12 hr; for cell death / effect on viability (in words): 14 days
Description: The cytotoxic effect of 2-5A activator antisense complexes on tumor cells was determined using the trypan blue dye exclusion assay. Tumor cells were seeded at 10^4 cells/well (0.1 ml) in 96-well flat-bottomed plates and incubated overnight at 37° C. Then, oligonucleotides (5 micromolar) in water were added into cells every 12 hr. On successive days the cells were harvested and 25% of the total was examined microscopically to determine the percentage of viable cells, another 25% was replated to continue treatment and the remaining 50% were used for the TRAP assay.
Knowing that hTR could be inactivated by the 2-5A antisense treatment, U251-MG cells were treated every 12 hours over a 14 day period with the same three oligonucleotides. 79% of the cells treated with spA4-anti-hTR were killed over the 14 day period with a significant (50%) reduction in cell viability after only 5 days. […] These experiments have since been repeated on a number of occasions with U251-MG cells to test new batches of oligonucleotides, always with the same results. […] Thus, after 14 days from the initial treatment with spA4-anti-hTR, the viability of U251-MG cells, as shown by Trypan-blue exclusion assays, was suppressed in all cases.

[2] = system: renal cell carcinoma cell line, RCC; assay: Viable cell count, daily oligonucleotide plus lipofectamine; format: cell-based, human; conditions: 0.5 micromolar daily plus lipofectamine, 3 days
Description: as §1
Similarly, the viability of the breast cancer cell line, MDA468, was reduced by 64% by SpA4-anti-hTR, while the control oligonucleotides reduced cell viability by <20% (FIG. 6). Viability of the human melanoma cell line, A375, was reduced by 43% in three days by SpA4-anti-hTR, while the control oligonucleotides had no effect (FIG. 7). […] Viability of a third human melanoma cell line, SK-MEL-5, was reduced by 43% by SpA4-anti-hTR, with minimal effects by the control oligonucleotides (FIG. 7). Two prostate tumor cells lines, PC3 and DU145, were suppressed by SpA4-anti-hTR treatments by 45% and 60%, respectively (FIGS. 6 and 10). […] The viability of the malignant glioma cell line, U373, was reduced by about 60% in 3 days, with intermediate effects by the control oligonucleotides (FIG. 6). Therefore, the proliferation and survival of every tumor cell type tested was inhibited by SpA4-anti-hTR. […] In contrast, there was no apoptosis detected in the control cells treated with lipofectamine without oligonucleotide (FIG. 12 upper panel).

U251-MG tumors [3] = assay: Subcutaneous xenografts in nude mice, intratumoral oligonucleotide; format: in vivo, Balb/c nude mice
Description: (§3) U251-MG and U373 MG tumor cells (1.0×10^6 cells in 0.1 ml serum free DMEM and 0.1 ml Matrigel) were injected subcutaneously into the right flank of 8-12 week-old female Balb/c nude mice (5 mice for each treatment group). Tumor growth was monitored using calipers every 2- or 3-days. Tumor volume (V) was calculated as (L×W^2)/2, where L=length (mm) and W=width (mm). Oligonucleotide treatment was initiated when the tumors reached an average tumor volume of 60-100 mm^3 (about four to five weeks after injection). Oligonucleotides (5 nmol/20 microliter sterile distilled water) were administered by injecting them directly into the tumor every 24 hr for 7-14 days. Some experiments included lipofectamine at 1 microliter per 20 microliters final volume of oligonucleotide solution. Mice were sacrificed by cervical dislocation the day after the final injection and the tumors were removed, frozen rapidly and 12 μm sections were prepared for histological studies. During all of these experiments, which were approved by the CCF Research Programs Committee, the animals were housed and handled in accordance with the National Institutes of Health guidelines.

U373-MG tumors [4] = assay: as above; format: in vivo, Balb/c nude mice; conditions: 5 nmol intratumoral daily for 7 days
Description: as §3

U251-MG tumors [5] = assay: In situ end-labeling (TUNEL) of DNA in subcutaneous xenografts; format: in vivo, nude mice; conditions: 5 nmol every day for 7 days
Source text: FIG. 14. In situ end-labeling of DNA in subcutaneous xenografts of nude mice. After treatment with oligonucleotides (5 nmol, every day) for 7 days, the mice were sacrificed and the subcutaneous mass was removed, frozen, and sectioned on a cryostat. The tumor specimens from U251-MG cells were counterstained by hematoxylin and eosin following the TUNEL technique. Arrows show representatives of tumor cells positive for DNA fragmentation (×400). (above) spA4-anti-(M6)hTR, 7 Day; (below) spA4-anti-hTR, 7 Day.
To further determine whether treatment with oligonucleotides induced apoptosis, tumor cells and tissues were stained by the terminal deoxynucleotidyl transferase (TdT)-mediated DUTP nick end labeling (TUNEL) technique using Apo-Tag kit (peroxidase conjugated) (Oncor Inc., Gaithersburg, Md.). The staining of apoptotic cells was done on U373MG cells. Oligonucleotides with lipofectamine was added to the cells every day. The final concentrations were 0.5 micromolar and 8 microgram/ml for oligo and lipofectamine, respectively. […]
U251-MG and U373 MG tumor cells (1.0×10^6 cells in 0.1 ml serum free DMEM and 0.1 ml Matrigel) were injected subcutaneously into the right flank of 8-12 week-old female Balb/c nude mice (5 mice for each treatment group). Tumor growth was monitored using calipers every 2- or 3-days. Tumor volume (V) was calculated as (L×W^2)/2, where L=length (mm) and W=width (mm). […]

Sp5′A(2′p5′A)3-Bu2-5′GCC CGG GGT GCA AAT GCA C3′-3′T5′ [spA4-anti-(M3)hTR]
cell viability / viable cell numbers reduced by (U373 cells): 76%

N.N.[Cl][Pt][Cl] [cisplatin]
IC50 of cisplatin (U373-MG cells; U373-MG, in combination with spA4-anti-hTR 0.5 μM every 24 hr plus Lipofectamine, three days, MTT): 1.0 µg/mL
cisplatin required to achieve 50% cell death (U373-MG cells; in the absence of SpA4-anti-hTR): > 10 micrograms per ml
cisplatin at which 50% cell death was achieved (U373-MG cells; plus 0.5 micromolar of SpA4-anti-hTR): 1 microgram per ml
cytotoxic effect of cisplatin on subcutaneous tumors (in words) (U373-MG tumors [1]): significantly enhanced

Sp5′A2′p(5′A2p)3-[(Bu)p]25′ GCC CGC GGT GCT AAT GCT C3′-3′T5′ (antisense GCCCGCGGTGCTAATGCTC; 5' tetrameric 2-5A via butanediol linkers, 3'-3' T cap, chemistry not fully specified) [spA4-anti-(M6)hTR, control with functional tetrameric 2-5A and six mismatched nucleotides in the antisense cassette]
telomerase RNA (hTR) detected by RT-PCR (telomerase RNA (hTR)): present
cell death / effect on viability (in words) (U251-MG cells): little, if any, cell death
cell viability / viable cell numbers reduced by (U373 cells): 43%
effect on growth/viability (in words) [2]: no reduction in viability
tumor growth (in words) (U251-MG tumors [3]; 5 nmol intratumoral daily for 7 days): continued to increase in size
average net weight of the tumors after treatment (U251-MG tumors [3]; 14 days treatment): 92.0 ± 14.7 mg
tumor response (in words) (U251-MG tumors [3]; 14 days treatment): lack of response
increase in tumor size during the treatment period (U251-MG tumors [3]; intratumoral daily for 14 days, relative to starting size): 87%
tumor growth (in words) (U373-MG tumors [4]): continued to increase in size
apoptotic cells observed in tumors (TUNEL) (U251-MG tumors [5]): a few apoptotic cells

Sp5′A2′p5′A2p-[(Bu)p]2-5′GCG CGG GGA GCA AAA GCA C3′-3′T5′ (antisense GCGCGGGGAGCAAAAGCAC; 5' 2-5A dimer via butanediol linkers, 3'-3' T cap, chemistry not fully specified) [spA2-anti-hTR, control with only two 2′,5′-linked adenylyl residues, defective 2-5A]
telomerase RNA (hTR) detected by RT-PCR (telomerase RNA (hTR)): present
cell death / effect on viability (in words) (U251-MG cells): mild antisense effect
cells remained viable (U251-MG cells; over the 14 day treatment period): 80%
cell viability / viable cell numbers reduced by (U373 cells): 42%
effect on growth/viability (in words) [2]: no reduction in viability
tumor response (in words) (U251-MG tumors [3]; 14 days treatment): lack of response

Sp5′A(2′p5′A)11-Bu2-5′GCG CGG GGA GCA AAA GCA C3′-3′T5′ (antisense GCGCGGGGAGCAAAAGCAC; 5' 2-5A (A12) via butanediol linkers, 3'-3' T cap, chemistry not fully specified) [spA12-anti-hTR, compound containing twelve 2′,5′-linked adenylyl residues]
anti-cellular activity compared with spA4-anti-hTR (in words) (U373 cells; after 7 days): considerably more anti-cellular activity
